Assay results published in US20210395239A1 (Hoffmann-La Roche Inc., priority 2018, published 2021).

Target: T1, hTLR9 (Homo sapiens, UniProt Q9NR96)
T1 sequence (Q9NR96 26-1032): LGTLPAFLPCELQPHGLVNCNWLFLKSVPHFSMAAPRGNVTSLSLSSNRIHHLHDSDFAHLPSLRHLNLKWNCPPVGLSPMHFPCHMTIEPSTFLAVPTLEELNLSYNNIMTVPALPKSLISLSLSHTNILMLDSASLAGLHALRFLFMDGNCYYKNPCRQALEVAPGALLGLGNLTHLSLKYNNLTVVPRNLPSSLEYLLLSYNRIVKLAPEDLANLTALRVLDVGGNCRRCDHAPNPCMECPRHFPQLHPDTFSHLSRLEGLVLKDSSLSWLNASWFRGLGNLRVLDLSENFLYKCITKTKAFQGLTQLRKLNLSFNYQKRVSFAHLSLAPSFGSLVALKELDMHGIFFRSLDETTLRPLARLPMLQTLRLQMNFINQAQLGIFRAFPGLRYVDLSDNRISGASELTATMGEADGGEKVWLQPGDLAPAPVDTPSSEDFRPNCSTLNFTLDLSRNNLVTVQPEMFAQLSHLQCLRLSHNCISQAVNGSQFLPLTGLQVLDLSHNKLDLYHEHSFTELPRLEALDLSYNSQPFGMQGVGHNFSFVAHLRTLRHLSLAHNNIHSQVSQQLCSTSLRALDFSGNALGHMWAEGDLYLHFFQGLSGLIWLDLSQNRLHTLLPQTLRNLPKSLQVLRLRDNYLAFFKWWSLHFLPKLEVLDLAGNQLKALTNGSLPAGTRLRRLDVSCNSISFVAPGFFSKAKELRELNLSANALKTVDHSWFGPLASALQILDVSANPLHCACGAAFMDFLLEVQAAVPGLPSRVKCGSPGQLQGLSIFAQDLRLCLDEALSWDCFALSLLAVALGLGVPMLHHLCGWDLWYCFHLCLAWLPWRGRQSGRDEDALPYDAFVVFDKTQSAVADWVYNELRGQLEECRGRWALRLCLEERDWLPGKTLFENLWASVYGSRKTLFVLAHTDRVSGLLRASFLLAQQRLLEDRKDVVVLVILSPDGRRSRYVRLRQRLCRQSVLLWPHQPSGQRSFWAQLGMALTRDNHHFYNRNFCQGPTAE
Assay: HEK293-Blue-hTLR-9 cells assay (SEAP reporter, ODN2006 stimulation)
Type: cell-based
Design: host or cells: HEK293 (HEK-Blue hTLR9)
Conditions: HEK293-Blue-hTLR9 cells, ODN2006, 20 hrs; read-out: HEK/hTLR9 IC50
Excerpt: HEK293-Blue-hTLR-9 Cells Assay:
A stable HEK293-Blue-hTLR-9 cell line was purchased from InvivoGen (Cat. #: hkb-htlr9, San Diego, Calif., USA). These cells were originally designed for studying the stimulation of human TLR9 by monitoring the activation of NF-κB. A SEAP (secreted embryonic alkaline phosphatase) reporter gene was placed under the control of the IFN-β minimal promoter fused to five NF-κB and AP-1-binding sites. The SEAP was induced by activating NF-κB and AP-1 via stimulating HEK-Blue hTLR9 cells with TLR9 ligands. Therefore the reporter expression was declined by TLR9 antagonist under the stimulation of a ligand, such as ODN2006 (Cat. #: tlrl-2006-1, Invivogen, San Diego, Calif., USA), for incubation of 20 hrs. The cell culture supernatant SEAP reporter activity was determined using QUANTI-Blue™ kit (Cat. #: rep-qb1, Invivogen, San Diego, Calif., USA) at a wavelength of 640 nm, a detection medium that turns purple or blue in the presence of alkaline phosphatase.
HEK293-Blue-hTLR9 cells were incubated at a density of 250,000˜450,000 cells/mL in a volume of 170 μL in a 96-well plate in Dulbecco's Modified Eagle's medium (DMEM) containing 4.5 g/L glucose, 50 U/mL penicillin, […], 2 mM L-glutamine, 10% (v/v) heat-inactivated fetal bovine serum with addition of 20 μL test compound in a serial dilution in the presence of final DMSO at 1% and 10 μL of 20 uM ODN2006 in above DMEM, perform incubation under 37° C. in a CO2 incubator for 20 hrs. Then 20 μL of the supernatant from each well was incubated with 180 μL Quanti-blue substrate solution at 37° C. for 2 h and the absorbance was read at 620-655 nm using a spectrophotometer. The signaling pathway that TLR9 activation leads to downstream NF-κB activation has been widely accepted, and therefore similar reporter assay was modified for evaluating TLR9 antagonist.

Q: With `Cc1ccc(N2C[C@H](CN3CCN(c4ccnc(N5CCN[C@H](C)C5)n4)CC3)O[C@H](C)C2)c2nccnc12` [Example 128, (2R,6S)-2-methyl-6-[[4-[2-[(3R)-3-methylpiperazin-1-yl]pyrimidin-4-yl]piperazin-1-yl]methyl]-4-(8-methylquinoxalin-5-yl)morpholine] as the compound, how does the IC50 read?
A: The IC50 was 182 nM.

Q: How did the IC50 turn out when `[2H]c1ccc2c(N3C[C@H](CN4CCN(c5nc(C)cc(N6CC(N)C6)n5)CC4)O[C@H](C)C3)ccc(C#N)c2n1` [Example 136, 5-[(2S,6R)-2-[[4-[4-(3-aminoazetidin-1-yl)-6-methyl-pyrimidin-2-yl]piperazin-1-yl]methyl]-6-methyl-morpholin-4-yl]-2-deuterio-quinoline-8-carbonitrile] was run?
A: Its IC50 is 33 nM.

Q: `CO[C@H]1CN(c2nccc(N3CCN(C[C@H]4CN(c5ccc(C#N)c6nccnc56)C[C@@H](C)O4)CC3)n2)C[C@@H]1N` [Example 99, 8-[(2S,6R)-2-[[4-[2-[(3S,4S)-3-amino-4-methoxy-pyrrolidin-1-yl]pyrimidin-4-yl]piperazin-1-yl]methyl]-6-methyl-morpholin-4-yl]quinoxaline-5-carbonitrile] was tested. Which IC50 did it give?
A: Its IC50 is 63 nM.

Q: `CO[C@@H]1CN(c2nccc(N3CCN(C[C@H]4CN(c5ccc(C#N)c6ncccc56)C[C@@H](C)O4)CC3)n2)C[C@@H]1N` [Example 92, 5-[(2S,6R)-2-[[4-[2-[(3S,4R)-3-amino-4-methoxy-pyrrolidin-1-yl]pyrimidin-4-yl]piperazin-1-yl]methyl]-6-methyl-morpholin-4-yl]quinoline-8-carbonitrile] was tested. Which IC50 did it give?
A: The IC50 was 42 nM.

Q: With `C[C@@H]1CN(c2ccc(C#N)c3nccnc23)C[C@H](CN2CCN(c3ccnc(N4CC[C@@H](N)[C@H](F)C4)n3)CC2)O1` [Example 113, 8-[(2S,6R)-2-[[4-[2-[(3R,4R)-4-amino-3-fluoro-1-piperidyl]pyrimidin-4-yl]piperazin-1-yl]methyl]-6-methyl-morpholin-4-yl]quinoxaline-5-carbonitrile] as the compound, how does the IC50 read?
A: The IC50 was 98 nM.

Q: Which IC50 does the source give for `C[C@@H]1CN(c2ccc(C#N)c3nccnc23)C[C@H](CN2CCN(c3nccc(N4C[C@@H](N)[C@H](F)C4)n3)CC2)O1` [Example 119, 8-[(2S,6R)-2-[[4-[4-[(3R,4R)-3-amino-4-fluoro-pyrrolidin-1-yl]pyrimidin-2-yl]piperazin-1-yl]methyl]-6-methyl-morpholin-4-yl]quinoxaline-5-carbonitrile] here?
A: The IC50 was 94 nM.

Q: For `C[C@@H]1CN(c2ccc(C#N)n3ncc(F)c23)C[C@H](CN2CC(c3ccc(N4C[C@@H]5C[C@H]4CN5)nc3)C2)O1` [Example 165, 4-[(2S,6R)-2-[[3-[6-[(1S,4S)-2,5-diazabicyclo[2.2.1]heptan-2-yl]-3-pyridyl]azetidin-1-yl]methyl]-6-methyl-morpholin-4-yl]-3-fluoro-pyrazolo[1,5-a]pyridine-7-carbonitrile], which IC50 is on record?
A: The IC50 was 108 nM.

Q: Which IC50 does the source give for `CO[C@H]1CN(c2ccnc(N3CCN(C[C@H]4CN(c5ccc(C#N)c6ncccc56)C[C@@H](C)O4)CC3)n2)C[C@@H]1N` [Example 97, 5-[(2S,6R)-2-[[4-[4-[(3S,4S)-3-amino-4-methoxy-pyrrolidin-1-yl]pyrimidin-2-yl]piperazin-1-yl]methyl]-6-methyl-morpholin-4-yl]quinoline-8-carbonitrile] here?
A: Its IC50 is 34 nM.

Q: How did the IC50 turn out when `[2H]c1ccc2c(N3C[C@H](CN4CCN(c5nc(C)cc(N6CC(C)(N)C6)n5)CC4)O[C@H](C)C3)ccc(C#N)c2n1` [Example 135, 5-[(2S,6R)-2-[[4-[4-(3-amino-3-methyl-azetidin-1-yl)-6-methyl-pyrimidin-2-yl]piperazin-1-yl]methyl]-6-methyl-morpholin-4-yl]-2-deuterio-quinoline-8-carbonitrile] was run?
A: The IC50 was 56 nM.

Q: For `C[C@@H]1CN(c2ccc(C#N)c3ncccc23)C[C@H](CN2CC(c3cccc(N4CCNCC4)c3)C2)O1` [Example 4, 5-[(2R,6S)-2-methyl-6-[[3-(3-piperazin-1-ylphenyl)azetidin-1-yl]methyl]morpholin-4-yl]quinoline-8-carbonitrile], which IC50 is on record?
A: The IC50 was 68 nM.

Q: With `[2H]c1ccc2c(N3C[C@H](CN4CCN(c5ncc(N6CC(C)(N)C6)cc5C)CC4)O[C@H](C)C3)ccc(C#N)c2n1` [Example 139, 5-[(2S,6R)-2-[[4-[5-(3-amino-3-methyl-azetidin-1-yl)-3-methyl-2-pyridyl]piperazin-1-yl]methyl]-6-methyl-morpholin-4-yl]-2-deuterio-quinoline-8-carbonitrile] as the compound, how does the IC50 read?
A: The IC50 was 78 nM.

Q: Which IC50 does the source give for `Cc1ccc(N2C[C@H](CN3CCN(c4ccnc(N5CC(N)C5)n4)CC3)O[C@H](C)C2)c2nccnc12` [Example 130, 1-[4-[4-[[(2S,6R)-6-methyl-4-(8-methylquinoxalin-5-yl)morpholin-2-yl]methyl]piperazin-1-yl]pyrimidin-2-yl]azetidin-3-amine] here?
A: The IC50 was 155 nM.

Q: How did the IC50 turn out when `[2H]c1ccc2c(N3C[C@H](CN4CCN(c5ccc(N6CC7(CN(C)C7)C6)nc5)CC4)O[C@H](C)C3)ccc(C#N)c2n1` [Example 161, 2-deuterio-5-[(2R,6S)-2-methyl-6-[[4-[6-(6-methyl-2,6-diazaspiro[3.3]heptan-2-yl)-3-pyridyl]piperazin-1-yl]methyl]morpholin-4-yl]quinoline-8-carbonitrile] was run?
A: The IC50 was 59 nM.

Q: With `[2H]c1ccc2c(N3C[C@H](CN4CC(c5cnc(N6C[C@@H](N)[C@H](OC)C6)cc5C)C4)O[C@H](C)C3)ccc(C#N)c2n1` [Example 146, 5-[(2S,6R)-2-[[3-[6-[(3R,4R)-3-amino-4-methoxy-pyrrolidin-1-yl]-4-methyl-3-pyridyl]azetidin-1-yl]methyl]-6-methyl-morpholin-4-yl]-2-deuterio-quinoline-8-carbonitrile] as the compound, how does the IC50 read?
A: The IC50 was 31 nM.

Q: How did the IC50 turn out when `[2H]c1nc2c(C#N)ccc(N3C[C@H](CN4CCN(c5nc(C)cc(N6CC(N)C6)n5)CC4)O[C@H](C)C3)c2nc1[2H]` [Example 124, 8-[(2S,6R)-2-[[4-[4-(3-aminoazetidin-1-yl)-6-methyl-pyrimidin-2-yl]piperazin-1-yl]methyl]-6-methyl-morpholin-4-yl]-2,3-dideuterio-quinoxaline-5-carbonitrile] was run?
A: Its IC50 is 31 nM.

Q: For `[2H]c1ccc2c(N3C[C@H](CN4CCN(c5ncc(N6C[C@@H](N)[C@H](OC)C6)cc5C)CC4)O[C@H](C)C3)ccc(C#N)c2n1` [Example 142, 5-[(2S,6R)-2-[[4-[5-[(3R,4R)-3-amino-4-methoxy-pyrrolidin-1-yl]-3-methyl-2-pyridyl]piperazin-1-yl]methyl]-6-methyl-morpholin-4-yl]-2-deuterio-quinoline-8-carbonitrile], which IC50 is on record?
A: Its IC50 is 64 nM.

Q: For `Cc1ccc(N2C[C@H](CN3CCN(c4ccnc(N5CCN[C@@H](C)C5)n4)CC3)O[C@H](C)C2)c2nccnc12` [Example 127, (2R,6S)-2-methyl-6-[[4-[2-[(3S)-3-methylpiperazin-1-yl]pyrimidin-4-yl]piperazin-1-yl]methyl]-4-(8-methylquinoxalin-5-yl)morpholine], which IC50 is on record?
A: Its IC50 is 149 nM.

Q: Which IC50 does the source give for `C[C@@H]1CN(c2ccc(C#N)n3ncc(F)c23)C[C@H](CN2CC(c3ccc(N4CC(C)(N)C4)cc3)C2)O1` [Example 160, 4-[(2S,6R)-2-[[3-[4-(3-amino-3-methyl-azetidin-1-yl)phenyl]azetidin-1-yl]methyl]-6-methyl-morpholin-4-yl]-3-fluoro-pyrazolo[1,5-a]pyridine-7-carbonitrile] here?
A: Its IC50 is 163 nM.
